Here are results for 25 molecules from PubChem BioAssay AID844 (SRMLSC, 2007).

Active and inactive are the calls of the source. The rule behind the calls is not given here.

The assay relates to MRP1 cells, doxorubicin viability shift, 10 uM compound. As to the kind of experiment: doxorubicin EC50 increase in MRP-1 cells, dose response, cell-based, doxorubicin EC50 shift (AID 844). To be noted: for EC50: measured here: doxorubicin EC50 with compound.

`O=C(O)c1ccc(N/N=C/c2ccc(F)c(F)c2)cc1`: the fold increase in Dox EC50 is 1.31 (inactive) and the EC50 amounted to 7.07 µM.
For `CC1CCc2c(sc3nc(CSc4ncn[nH]4)[nH]c(=O)c23)C1` (stereo not given), in that order: 0.81 (inactive) and 4.4 µM.
On to `Cn1nnc(NC(=O)COc2ccc(C3CCCCC3)cc2)n1`, for which the fold increase in Dox EC50 is 1.49 and the EC50 came out at 8.05 µM.
With `Cc1noc(/C=C/N(C)C)c1S(=O)(=O)N1CCCC(C(=O)NCc2ccc(F)cc2)C1` (stereo not given), the fold increase in Dox EC50 was 1.15 (inactive) and the EC50 was determined as 6.2 µM.
For `Cc1cc(C(=O)COC(=O)c2ccc3c(c2)OCO3)c(C)n1Cc1cccs1`, the fold increase in Dox EC50 is 1.06 (inactive) and the EC50 amounted to 5.7 µM.
As to `Cc1cc(C)nc(NN2C(=O)/C(=C/c3ccccc3)SC2=S)n1`, the fold increase in Dox EC50 was 1.56 and the EC50 is 8.42 µM.
For `COC(=O)C(CC(C)C)NC(=O)CSc1nc(-c2ccccc2)c(C#N)c(=O)[nH]1` (stereo not given), in that order: 1.85 and 10 µM.
For the molecule `O=c1c(-c2nnc(SCc3ccc(Cl)cc3)o2)cccn1Cc1ccccc1`, the fold increase in Dox EC50 was 0.63 (inactive) and the half-maximal effective concentration (EC50) stood at 3.4 µM.
For `CC(CCc1ccccc1)NC(=O)c1nnc(Cc2ccc(Cl)cc2)o1` (stereo not given), the fold increase in Dox EC50 is 1.13 (inactive) and the EC50 stood at 6.1 µM.
Taken in the same sequence, the figures for `COc1ccc(NC(=O)CC2C(=O)N(c3ccc(F)cc3)C(=S)N2NC(=O)c2ccccc2)cc1` (stereo not given) were 0.79 (inactive) and 4.29 µM.
As for `NNC(=O)CNC(c1ccccc1)c1cc(Br)ccc1NC(=O)c1cccc(Cl)c1` (stereo not given), the fold increase in Dox EC50 was 1.21 (inactive) and the EC50 turned out to be 6.53 µM.
Taken in the same sequence, the figures for `COc1cc(NS(=O)(=O)c2ccc(C)cc2)ccc1-n1cnnn1` were 1.02 (inactive) and 5.51 µM.
In the case of `Cc1cc2nc(-c3cccc(NC(=O)c4ccc(Br)o4)c3C)oc2cc1C`, the fold increase in Dox EC50 was 1.03 (inactive) and the EC50 turned out to be 5.56 µM.
Regarding `COc1ccc(Cc2nnc(N/N=C/c3ccc(O)cc3O)[nH]c2=O)cc1OC`, the fold increase in Dox EC50 was 0.15 (inactive) and the concentration giving a half-maximal response (EC50) is 0.836 µM.
Taken in the same sequence, the figures for `O=C1/C(=C\c2ccco2)SC(=S)N1c1ccc(O)cc1` were 0.34 (inactive) and 1.84 µM.
For the molecule `O=C(NCCC1=CCCCC1)C1CCN(S(=O)(=O)c2cccc3cccnc23)CC1`, the fold increase in Dox EC50 was 0.43 (inactive) and the EC50 was determined as 2.31 µM.
For `N#Cc1nc(COc2ccc(Br)cc2)oc1N1CCCC1`, in that order: 1.26 (inactive) and 6.8 µM.
Turning to `O=C(Nc1ccc(N2CCCCC2)c(Cl)c1)c1ncn[nH]1`, the fold increase in Dox EC50 is 0.78 (inactive) and the EC50 amounted to 4.22 µM.
Taken in the same sequence, the figures for `N#CC(C#N)=NNc1ccc(S(=O)(=O)N2CCCC2)cc1` were 1.09 (inactive) and 5.88 µM.
As for `O=C1CC(N2CCC(c3nc4ccccc4o3)CC2)C(=O)N1c1cc(Cl)cc(Cl)c1` (stereo not given), the fold increase in Dox EC50 was 1.36 (inactive) and the concentration for a half-maximal effect (EC50) was found to be 7.36 µM.
On to `Cc1ccc(S(=O)(=O)N2CCN(c3nc(C)c4c(c3C#N)CC(C)(C)OC4)CC2)cc1`, for which the fold increase in Dox EC50 was 0.72 (inactive) and the EC50 came out at 3.91 µM.
On to `CC(=O)Nc1ccc2[nH]c(C)c(CC=C(Cl)Cl)c(=O)c2c1`, for which the fold increase in Dox EC50 is 0.72 (inactive) and the EC50 was determined as 3.87 µM.
Taken in the same sequence, the figures for `Cc1ccc(N2C(=O)Nc3ccc(Br)cc3C2(O)C(=O)NCCCN(C)C)cc1C` (stereo not given) were 0.69 (inactive) and 3.72 µM.
Taken in the same sequence, the figures for `CSC1=NP(=S)(SC)N2CCCC2=C1C#N` (stereo not given) were 0.97 (inactive) and 5.24 µM.
For `Cc1ccc(NC(=O)CCC(=O)N/N=C/c2cccs2)cc1C`, in that order: 0.97 (inactive) and 5.23 µM.
